Reference: patent US20220064196A1, “EGFR Inhibitors, Compositions and Methods Thereof” (Betta Pharmaceuticals Co., Ltd., priority 2019, published 2022)
Read-outs that look alike come from different tables or passages of the source.

Columns and labels:
EGFR WT = EGFR WT (Homo sapiens, UniProt P00533); assay: Kinase assay (mobility shift), EGFR wildtype; format: biochemical; conditions: top concentration 300 nM
Experimental: (§1) Test 1 Kinase Assay for EGFR Del19/T790M/C797S and EGFR Wildtype
(§2) Enzyme reaction protocol are as follows:
(§3) 1. Preparing 1* Kinase buffer as followed.
(§4) 2. Preparing Compound Concentration Gradient: Compounds were tested at a concentration of 300 nM, diluted to 100-fold final concentration in 100% DMSO solution in 96-well plates, and compounds were diluted 3 times with Precision, 10 concentrations. Each concentration of the compound was then further diluted to a 5-fold final concentration of the intermediate dilution solution using 1* Kinase buffer.
(§5) 3.5 μL of each of the prepared intermediate dilution compounds was separately added to the compound wells of the 384-well plate, and each concentration was tested for duplicate wells; 5 μL of 5% DMSO was added to the negative control wells and the positive control wells, respectively.
(§6) 4. 2.5-fold final concentration of the kinase solution was prepared using 1*Kinase buffer.
(§7) 5. Add 10 μL of 2.5-fold final concentration of kinase solution to the compound well and positive control well; add 10 μL of 1*Kinase buffer to the negative control well.
(§8) 6. Centrifuge at 1000 rpm for 30 seconds, shake the reaction plate and incubate for 10 minutes at room temperature.
(§9) 7. A mixed solution of 2.5 times the final concentration of ATP and Kinase substrate (5-FAM-EEPLYWSFPAKKK-CONH2) was prepared using 1*Kinase buffer.
(§10) 8. 10 μL of a 2.5-fold final concentration of a mixed solution of ATP and a substrate was added to initiate the reaction.
(§11) 9. Centrifuge the 384-well plate at 1000 rpm for 30 seconds, mix by shaking, and incubate at room temperature for the corresponding time.
(§12) 10. Add 30 μL of the stop solution to stop the kinase reaction, centrifuge at 1000 rpm for 30 seconds, and mix by shaking.
(§13) 11. Read the conversion rate with Caliper EZ Reader.
(§14) Convert conversion values to inhibition values:
(§15) Percent inhibition 32 (max-conversion)/(max-min)*100.
(§16) “max” stands for the mean value of the positive control well ratio; “min” stands for the mean value of the negative control well.
(§17) Fit the data in log(inhibitor) vs. response Variable slope of GraphPad Prism 5 to obtain IC50 values.
(§18) Equation used is: Y=Bottom+(Top-Bottom)/(1+(IC50/X)^HillSlope)

EGFR L858R/T790M/C797S = EGFR L858R/T790M/C797S (Homo sapiens, UniProt P00533, C797S/L858R/T790M); assay: Kinase assay (mobility shift), EGFR L858R/T790M/C797S; format: biochemical
Experimental: [Worded in the source for another variant; this variant is reported under the same test.] as §1, §2, §3, §4, §5, §6, §7, §8, §9, §10, §11, §12, §13, §14, §15, §16, §17, §18

Ba/F3-Del19/T790M/C797S = Ba/F3-Del19/T790M/C797S (Homo sapiens, UniProt P00533, T790M/C797S, cells depend on it, form not given); assay: Ba/F3-Del19/T790M/C797S cells proliferation assay (CellTiter Glo); format: cell-based; conditions: cell proliferation, 72 h, read-out: Ba/F3-Del19/T790M/C797S IC50
Experimental: (§19) a) The medium was preheated in a 37°0 C. water bath in advance.
(§20) b) Remove the cryogenic vials from the liquid nitrogen tank, quickly put it into a 37° C. water bath, and completely melt it in 1 min.
(§21) c) Transfer the cell suspension to a 15 mL centrifuge tube containing 8 mL medium, centrifuge 1000 rpm, 5 min.
(§22) d) Discard the supernatant, resuspend the cells in 1 mL medium, and transfer to a 75 cm^2 flask containing 15 mL medium, culture the cells in an incubator at 37° C., 5% CO2.
(§23) a) The medium was preheated in a 37° C. water bath in advance.
(§24) b) Collect cell to a 15 mL centrifuged tube, centrifuge at 1000 rpm for 5 min. Discard the supernatant, count, and make the cell density at 1×10^4 cells/mL, then place it in a 37° C., 5% CO2 incubator.
(§25) a) The test compound (20 mM stock solution) was diluted to 200uM with 100% DMSO as starting concentration then 3-fold serial diluted with “9+0” concentrations. in a 96-well dilution plate (Cat # P-05525, Labcyte);
(§26) b) The above compound solution was diluted 1:20 times with culture medium to prepare a 10 fold working solution;
(§27) a) Take cells in log phase growth, centrifuge at 1000 rpm for 5 min, then resuspend the cells with culture medium, then count cells;
(§28) b) Cells were seeded to 96-well cell culture plate with density at 2000 cells/well;
(§29) a) Compounds prepared at step 2 were added to cell plate with 15 μL per well, the final concentrations were 1000,333, 111.1, 37,12.3, 4.1, 1.4, 0.5, 0.2 and 0 nM, and the final concentration of DMSO was 0.5%. The blank control well was a culture medium (0.5% DMSO);
(§30) b) The cells were incubated for an additional 72 h in the incubator.
(§31) a) Remove the 96-well cell culture plate and add 50 μl of CTG reagent (CellTiter Glo kit, promega, Cat # G7573).
(§32) b) Plate was shaked for 2 min and then let it cool for 10 min at room temperature.
(§33) c) The Luminescence signal value was read using a PerkinElmer reader. Experimental data analysis
(§34) Data were analyzed using GraphPad Prism 6.0 software to obtain a fitted curve of compound activity.
(§35) Fit the Compound IC50 from non-linear regression equation:
(§36) Y=Bottom+(Top-Bottom)/(1+10((LogIC50-X)×Hill Slope));
(§37) X: The log of the concentration of the compound; Y: Luminescence value.
(§38) The cells proliferation assay results are expressed with IC50, shown as Table 2.

Ba/F3-L858R/T790M/C797S = Ba/F3-L858R/T790M/C797S (Homo sapiens, UniProt P00533, T790M/C797S/L858R, cells depend on it); assay: Ba/F3-L858R/T790M/C797S cells proliferation assay (CellTiter Glo); format: cell-based; conditions: cell proliferation, 72 h, read-out: Ba/F3-L858R/T790M/C797S IC50
Experimental: as §19, §20, §21, §22, §23, §24, §25, §26, §27, §28, §29, §30, §31, §32, §33, §34, §35, §36, §37, §38

A431 (WT) = assay: A431 cells proliferation assay (CellTiter Glo); format: cell-based; conditions: Homo sapiens, A-431; cell proliferation, 72 h
Experimental: Test 4 A431 Cells Proliferation Assay
DMEM and 10% FBS and 1% PS.
as §23, §20, §21, §22, §24
a) The test compound (20 mM stock solution) was diluted to 2 mM with 100% DMSO as starting concentration then 3-fold serial diluted with “9+0” concentrations. in a 96-well dilution plate (Cat # P-05525, Labcyte);
b) The above compound solution was diluted 1:40 times with culture medium to prepare a 5 fold working solution;
as §27
b) Cells were seeded to 96-well cell culture plate with density at 5000 cells/well;
a) Compounds prepared at step 2 were added to cell plate with 40 μL per well, the final concentrations were 10000, 3333,1111.1, 370.4, 123.5, 41.2, 13.7, 4.6, 1.5 and 0 nM, and the final concentration of DMSO was 0.5%. The blank control well was a culture medium (0.5% DMSO);
as §30
a) Remove the 96-well cell culture plate and add 60 μl of CTG reagent (CellTiter Glo kit, promega, Cat # G7573).
as §32
c) The Luminescence signal value was read using a PerkinElmer reader.
Experimental Data Analysis
as §34, §35
Y=Bottom+(Top-Bottom)/(1+10((LogIC50-X)×HillSlope));
as §37
The cells proliferation assay results are expressed with IC50, shown as Table 3.

[1] = Pharmacokinetic assay, oral administration; format: in vivo; conditions: rat, male SD rats, p.o. 5 mg/kg, plasma, formulation differs per row
Experimental: Test 5 Pharmacokinetic Assay
Male SD rats, oral administration (intragastric administration), 3 in each group. Animals administered by gavage were fasted overnight before the experiment, and the fasting time was from at least 12 hours before administration to 4 hours after administration. The blood was collected using the orbital vein. Time of blood collection by oral administration: 15 min, 30 min, 1 h, 2 h, 4 h, 7 h, 24 h. The blood collection volume was 300 uL, and after anticoagulation with 2.0% EDTA, the blood was centrifuged at 4000 rpm for 5 min, and the blood plasma was taken for about 100 uL, and placed in −20° C. for examination. The plasma sample was analyzed using liquid chromatography tandem mass spectrometry (LC-MS/MS). Plasma concentration-time data for individual animals were analyzed using WinNonlin (V4.1, Pharsight) software with a non-compartmental model and the pharmacokinetic parameters of the test compounds were calculated.

Sequence of Ba/F3-L858R/T790M/C797S (P00533 whole entry T790M/C797S/L858R): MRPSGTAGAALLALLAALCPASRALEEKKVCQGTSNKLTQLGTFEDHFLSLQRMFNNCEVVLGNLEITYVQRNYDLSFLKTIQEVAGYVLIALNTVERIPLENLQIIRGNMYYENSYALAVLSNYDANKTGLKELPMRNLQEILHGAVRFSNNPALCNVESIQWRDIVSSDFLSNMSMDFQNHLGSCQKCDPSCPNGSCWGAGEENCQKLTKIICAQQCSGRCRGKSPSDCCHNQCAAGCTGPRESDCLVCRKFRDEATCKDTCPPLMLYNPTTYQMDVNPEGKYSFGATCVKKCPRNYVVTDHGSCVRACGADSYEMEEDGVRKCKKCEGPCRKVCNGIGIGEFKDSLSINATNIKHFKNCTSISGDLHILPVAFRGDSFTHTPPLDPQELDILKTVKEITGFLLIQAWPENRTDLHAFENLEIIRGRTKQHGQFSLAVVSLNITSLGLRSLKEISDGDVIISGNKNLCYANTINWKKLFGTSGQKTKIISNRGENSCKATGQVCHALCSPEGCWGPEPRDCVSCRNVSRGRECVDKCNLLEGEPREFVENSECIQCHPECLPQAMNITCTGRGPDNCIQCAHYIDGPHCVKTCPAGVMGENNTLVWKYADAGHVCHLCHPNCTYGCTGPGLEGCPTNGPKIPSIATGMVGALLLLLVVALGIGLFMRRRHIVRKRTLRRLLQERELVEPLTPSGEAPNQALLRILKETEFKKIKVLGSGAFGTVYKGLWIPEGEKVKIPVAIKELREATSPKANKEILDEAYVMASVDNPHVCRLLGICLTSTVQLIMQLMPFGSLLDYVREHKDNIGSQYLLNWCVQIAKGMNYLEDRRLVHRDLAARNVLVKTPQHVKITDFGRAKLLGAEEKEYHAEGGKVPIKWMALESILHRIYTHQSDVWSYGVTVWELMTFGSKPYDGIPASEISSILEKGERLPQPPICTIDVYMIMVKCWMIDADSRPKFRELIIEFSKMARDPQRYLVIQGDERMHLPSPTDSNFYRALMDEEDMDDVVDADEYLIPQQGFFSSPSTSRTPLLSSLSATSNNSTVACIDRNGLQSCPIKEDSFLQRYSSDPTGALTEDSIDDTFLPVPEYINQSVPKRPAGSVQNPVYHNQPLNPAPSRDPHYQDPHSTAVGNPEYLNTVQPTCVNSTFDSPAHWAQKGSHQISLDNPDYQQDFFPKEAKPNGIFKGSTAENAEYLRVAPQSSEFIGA
Sequence of EGFR L858R/T790M/C797S (P00533 25-1210 T790M/C797S/L858R): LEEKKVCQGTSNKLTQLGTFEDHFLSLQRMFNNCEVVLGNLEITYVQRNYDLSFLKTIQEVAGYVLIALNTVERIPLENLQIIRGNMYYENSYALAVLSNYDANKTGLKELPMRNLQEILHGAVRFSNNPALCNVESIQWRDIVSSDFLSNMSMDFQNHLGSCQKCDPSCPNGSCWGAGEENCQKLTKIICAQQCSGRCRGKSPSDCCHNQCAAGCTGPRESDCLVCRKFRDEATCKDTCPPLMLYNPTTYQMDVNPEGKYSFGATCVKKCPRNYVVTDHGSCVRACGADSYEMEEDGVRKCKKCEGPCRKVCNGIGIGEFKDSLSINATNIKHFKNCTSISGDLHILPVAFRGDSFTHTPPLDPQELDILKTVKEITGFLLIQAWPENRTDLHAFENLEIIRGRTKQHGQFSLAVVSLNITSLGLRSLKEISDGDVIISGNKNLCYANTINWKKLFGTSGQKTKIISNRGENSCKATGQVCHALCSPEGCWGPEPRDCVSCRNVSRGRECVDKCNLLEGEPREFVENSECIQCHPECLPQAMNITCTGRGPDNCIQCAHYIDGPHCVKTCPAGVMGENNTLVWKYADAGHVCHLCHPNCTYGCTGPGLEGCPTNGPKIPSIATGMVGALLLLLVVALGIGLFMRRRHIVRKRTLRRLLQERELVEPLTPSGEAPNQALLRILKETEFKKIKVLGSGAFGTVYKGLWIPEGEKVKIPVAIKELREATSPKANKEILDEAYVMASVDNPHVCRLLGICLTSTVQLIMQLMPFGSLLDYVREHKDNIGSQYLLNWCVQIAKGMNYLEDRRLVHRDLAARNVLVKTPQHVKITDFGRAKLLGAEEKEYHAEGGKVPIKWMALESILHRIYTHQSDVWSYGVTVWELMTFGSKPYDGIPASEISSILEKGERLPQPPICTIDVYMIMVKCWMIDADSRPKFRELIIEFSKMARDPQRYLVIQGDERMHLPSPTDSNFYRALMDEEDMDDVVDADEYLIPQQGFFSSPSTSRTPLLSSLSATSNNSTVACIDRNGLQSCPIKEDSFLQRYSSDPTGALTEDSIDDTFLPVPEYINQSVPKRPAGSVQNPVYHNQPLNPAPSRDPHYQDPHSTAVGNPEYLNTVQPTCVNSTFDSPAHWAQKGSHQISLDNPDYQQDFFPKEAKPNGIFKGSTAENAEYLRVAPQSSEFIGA
Sequence of EGFR WT (P00533 25-1210): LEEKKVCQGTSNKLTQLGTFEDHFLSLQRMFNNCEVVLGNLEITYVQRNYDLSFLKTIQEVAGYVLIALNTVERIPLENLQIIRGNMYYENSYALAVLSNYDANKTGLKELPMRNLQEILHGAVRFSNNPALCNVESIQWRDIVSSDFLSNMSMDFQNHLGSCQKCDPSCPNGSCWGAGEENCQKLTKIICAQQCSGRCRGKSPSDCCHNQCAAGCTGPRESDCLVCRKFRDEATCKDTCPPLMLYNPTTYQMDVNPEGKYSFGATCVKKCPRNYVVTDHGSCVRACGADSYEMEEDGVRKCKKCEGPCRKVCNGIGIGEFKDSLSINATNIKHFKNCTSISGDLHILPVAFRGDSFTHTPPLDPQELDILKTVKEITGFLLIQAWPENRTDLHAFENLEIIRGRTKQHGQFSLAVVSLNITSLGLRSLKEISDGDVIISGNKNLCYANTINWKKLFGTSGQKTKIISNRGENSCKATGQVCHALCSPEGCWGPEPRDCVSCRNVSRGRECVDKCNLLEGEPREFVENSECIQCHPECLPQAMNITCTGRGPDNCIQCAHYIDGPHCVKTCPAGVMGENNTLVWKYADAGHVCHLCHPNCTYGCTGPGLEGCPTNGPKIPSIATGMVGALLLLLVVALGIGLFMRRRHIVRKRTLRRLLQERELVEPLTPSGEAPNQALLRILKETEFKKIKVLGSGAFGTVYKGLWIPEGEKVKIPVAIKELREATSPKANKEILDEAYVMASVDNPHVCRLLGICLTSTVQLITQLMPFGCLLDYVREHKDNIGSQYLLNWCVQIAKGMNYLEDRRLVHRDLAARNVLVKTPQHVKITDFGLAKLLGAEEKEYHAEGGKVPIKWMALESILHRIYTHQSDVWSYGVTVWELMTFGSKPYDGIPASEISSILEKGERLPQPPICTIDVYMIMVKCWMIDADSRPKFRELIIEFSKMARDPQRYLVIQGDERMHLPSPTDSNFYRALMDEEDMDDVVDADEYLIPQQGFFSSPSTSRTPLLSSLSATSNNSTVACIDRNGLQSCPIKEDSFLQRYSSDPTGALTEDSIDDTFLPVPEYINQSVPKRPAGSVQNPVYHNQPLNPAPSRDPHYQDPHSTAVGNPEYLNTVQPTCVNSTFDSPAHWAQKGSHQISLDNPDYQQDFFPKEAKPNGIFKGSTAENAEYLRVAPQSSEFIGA
Sequence of Ba/F3-Del19/T790M/C797S (P00533 with tags, fused parts or gaps DEL746-750/T790M/C797S, form open): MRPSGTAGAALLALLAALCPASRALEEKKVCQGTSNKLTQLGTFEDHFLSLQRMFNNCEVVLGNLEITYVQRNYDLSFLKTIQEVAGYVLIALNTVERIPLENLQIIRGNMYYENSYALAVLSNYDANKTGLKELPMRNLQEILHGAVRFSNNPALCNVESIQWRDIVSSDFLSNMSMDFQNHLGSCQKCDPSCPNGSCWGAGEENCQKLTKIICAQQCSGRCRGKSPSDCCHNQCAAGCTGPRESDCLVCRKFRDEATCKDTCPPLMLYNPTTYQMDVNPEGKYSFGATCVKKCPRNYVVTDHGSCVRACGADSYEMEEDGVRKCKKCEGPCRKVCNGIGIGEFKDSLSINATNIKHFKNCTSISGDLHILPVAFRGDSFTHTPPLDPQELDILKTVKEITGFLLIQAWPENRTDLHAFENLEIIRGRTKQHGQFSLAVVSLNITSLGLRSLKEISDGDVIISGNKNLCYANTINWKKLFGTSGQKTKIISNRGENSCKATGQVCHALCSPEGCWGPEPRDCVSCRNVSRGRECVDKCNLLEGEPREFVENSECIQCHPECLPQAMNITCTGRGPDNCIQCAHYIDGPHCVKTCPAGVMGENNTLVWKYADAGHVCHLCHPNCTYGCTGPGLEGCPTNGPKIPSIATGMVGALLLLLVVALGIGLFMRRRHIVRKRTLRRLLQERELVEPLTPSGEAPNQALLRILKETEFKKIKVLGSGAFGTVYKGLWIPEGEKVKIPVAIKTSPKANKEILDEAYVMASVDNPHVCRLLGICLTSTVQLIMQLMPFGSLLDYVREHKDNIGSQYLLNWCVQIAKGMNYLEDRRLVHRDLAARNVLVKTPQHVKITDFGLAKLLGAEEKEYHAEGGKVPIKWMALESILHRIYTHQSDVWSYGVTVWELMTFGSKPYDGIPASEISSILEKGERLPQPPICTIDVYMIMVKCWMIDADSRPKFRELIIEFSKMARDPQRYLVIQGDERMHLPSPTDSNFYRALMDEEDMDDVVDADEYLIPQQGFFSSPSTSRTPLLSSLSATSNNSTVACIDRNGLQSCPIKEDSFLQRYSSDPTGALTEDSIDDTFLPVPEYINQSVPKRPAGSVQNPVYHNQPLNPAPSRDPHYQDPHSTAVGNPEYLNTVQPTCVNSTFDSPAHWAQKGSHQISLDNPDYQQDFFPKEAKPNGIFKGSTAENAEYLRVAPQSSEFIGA

Row | SMILES | IC50 (EGFR WT) [nM] | IC50 (EGFR L858R/T790M/C797S; class symbols) [nM] | GI50 (Ba/F3-Del19/T790M/C797S; class symbols) [nM] | GI50 (Ba/F3-L858R/T790M/C797S; class symbols) [nM] | IC50 (EGFR L858R/T790M/C797S; numeric values) [nM] | IC50 (A431 (WT)) [nM] | AUC(0-t) [1] [ng·h/mL] | Cmax [1] [ng/mL] | Tmax [1] [h] | half-life [1] [h] | GI50 (Ba/F3-Del19/T790M/C797S; numeric values) [nM] | GI50 (Ba/F3-L858R/T790M/C797S; numeric values) [nM]
1 | CN(C)C1CCC2(CC1)CN(c1ccc(Nc3ncc(Cl)c(Nc4ccccc4P(C)(C)=O)n3)cc1Cl)C2 [Example 10, (2-((5-chloro-2-((3-chloro-4-(7-(dimethylamino)-2-azaspiro[3.5]nonan-2-yl)phenyl)amino)pyrimidin-4-yl)amino)phenyl)dimethylphosphine oxide] | – | – | – | – | 0.7 | 41.6 | 443 | 35.1 | 4 | 9.06 | 10.2 | 24.7
2 | Cc1cc(Nc2ncc(Cl)c(Nc3ccccc3P(C)(C)=O)n2)ccc1N1CCC2(CC1)CC(N(C)C)C2 [Example 15, (2-((5-chloro-2-((4-(2-(dimethylamino)-7-azaspiro[3.5]nonan-7-yl)-3-methylphenyl)amino)pyrimidin-4-yl)amino)phenyl)dimethylphosphine oxide] | – | – | – | – | 0.7 | 27.6 | 6940 | 575 | 6 | 4.38 | 15.5 | 17
3 | Cc1cc(Nc2ncc(C)c(Nc3ccccc3P(C)(C)=O)n2)ccc1N1CC2(CC(N)C2)C1 [Example 22, (2-((2-((4-(6-amino-2-azaspiro[3.3]heptan-2-yl)-3-methylphenyl)amino)-5-methylpyrimidin-4-yl)amino)phenyl)dimethylphosphine oxide] | 57 | 2 to 10 | > 50 | > 50 | – | – | – | – | – | – | – | –
4 | CP(C)(=O)c1ccccc1Nc1nc(Nc2ccc(N3CC4(CC(N)C4)C3)c(Cl)c2)ncc1Cl [Example 26, (2-((2-((4-(6-amino-2-azaspiro[3.3]heptan-2-yl)-3-chlorophenyl)amino)-5-chloropyrimidin-4-yl)amino)phenyl)dimethylphosphine oxide] | 37 | – | 10 to 50 | 10 to 50 | 1.7 | – | – | – | – | – | – | –
5 | CN(C)C1CC2(CCN(c3ccc(Nc4ncc(Cl)c(Nc5ccccc5P(C)(C)=O)n4)cc3F)CC2)C1 [Example 30, (2-((5-chloro-2-((4-(2-(dimethylamino)-7-azaspiro[3.5]nonan-7-yl)-3-fluorophenyl)amino)pyrimidin-4-yl)amino)phenyl)dimethylphosphine oxide] | – | – | ≤ 10 | 10 to 50 | 1.1 | 30 | – | – | – | – | – | –

Continued, in another order:

Row | IC50 (EGFR WT) [nM] | IC50 (EGFR L858R/T790M/C797S; class symbols) [nM] | GI50 (Ba/F3-Del19/T790M/C797S; class symbols) [nM] | GI50 (Ba/F3-L858R/T790M/C797S; class symbols) [nM] | IC50 (EGFR L858R/T790M/C797S; numeric values) [nM] | SMILES | IC50 (A431 (WT)) [nM] | AUC(0-t) [1] [ng·h/mL] | Cmax [1] [ng/mL] | Tmax [1] [h] | half-life [1] [h] | GI50 (Ba/F3-Del19/T790M/C797S; numeric values) [nM] | GI50 (Ba/F3-L858R/T790M/C797S; numeric values) [nM]
6 | 66 | 2 to 10 | 10 to 50 | 10 to 50 | – | CNC1CCC2(CC1)CN(c1ccc(Nc3ncc(Cl)c(Nc4ccccc4P(C)(C)=O)n3)cc1C)C2 [Example 2, (2-((5-chloro-2-((3-methyl-4-(7-(methylamino)-2-azaspiro[3.5]nonan-2-yl)phenyl)amino)pyrimidin-4-yl)amino)phenyl)dimethylphosphine oxide] | – | – | – | – | – | – | –
7 | – | – | > 50 | > 50 | 7.8 | CN(C)C1CC2(CCN(c3ccc(Nc4nccc(Nc5ccccc5P(C)(C)=O)n4)cc3Cl)CC2)C1 [Example 7, (2-((2-((3-chloro-4-(2-(dimethylamino)-7-azaspiro[3.5]nonan-7-yl)phenyl)amino)pyrimidin-4-yl)amino)phenyl)dimethylphosphine oxide] | 341 | – | – | – | – | – | –
8 | 167 | – | > 50 | > 50 | 11 | COc1cnc(Nc2ccc(N3CC4(CC(N)C4)C3)c(C)c2)nc1Nc1ccccc1P(C)(C)=O [Example 23, (2-((2-((4-(6-amino-2-azaspiro[3.3]heptan-2-yl)-3-methylphenyl)amino)-5-methoxypyrimidin-4-yl)amino)phenyl)dimethylphosphine oxide] | – | – | – | – | – | – | –
9 | 101 | – | > 50 | > 50 | 18 | Cc1cc(Nc2ncc(F)c(Nc3ccccc3P(C)(C)=O)n2)ccc1N1CC2(CC(N)C2)C1 [Example 24, (2-((2-((4-(6-amino-2-azaspiro[3.3]heptan-2-yl)-3-methylphenyl)amino)-5-fluoropyrimidin-4-yl)amino)phenyl)dimethylphosphine oxide] | – | – | – | – | – | – | –
10 | 28 | – | – | – | 1.5 | Cc1cc(Nc2ncc(Cl)c(Nc3ccccc3P(C)(C)=O)n2)ccc1N1CC2(CC(N)C2)C1 [Example 25, (2-((2-((4-(6-amino-2-azaspiro[3.3]heptan-2-yl)-3-methylphenyl)amino)-5-chloropyrimidin-4-yl)amino)phenyl)dimethylphosphine oxide] | – | – | – | – | – | 18 | 24.2
11 | 127 | – | > 50 | > 50 | 4.4 | COc1cnc(Nc2ccc(N3CCC4(CC3)CC(N)C4)c(C)c2)nc1Nc1ccccc1P(C)(C)=O [Example 27, (2-((2-((4-(2-amino-7-azaspiro[3.5]nonan-7-yl)-3-methylphenyl)amino)-5-methoxypyrimidin-4-yl)amino)phenyl)dimethylphosphine oxide] | – | – | – | – | – | – | –
